{"source": "a melting point compilation (Tetko et al.; mined from patent text by program, amines drawn as free bases though some values may be those of a salt)"}
{"units": {"melting point": "°C"}}
{"smiles": "COC(=O)c1ncc(C)cc1C(=O)O", "melting point": 200}
{"smiles": "O=C(O)CC(CC(=O)O)c1ccc(O)cc1", "melting point": "168 to 170"}
{"smiles": "COC(=O)[C@H](Cc1ccccc1)NC(=S)Cc1ccc(C)cc1", "melting point": "84 to 86"}
{"smiles": "CCCCC(=O)NC1(c2ccc(C(C)C)cc2OC(=O)CCCC)C(=O)c2ccccc2C1=O", "melting point": "117 to 118"}
{"smiles": "CC(=O)NCC1CN(c2ccc(N3CCC(=CC#N)C(C)C3)c(F)c2)C(=O)O1", "note": "(configuration not stated)", "melting point": "152 to 153"}
{"smiles": "O=C(CC=C(Cl)Cl)Oc1ccc([N+](=O)[O-])cc1", "melting point": "80 to 90"}
{"smiles": "CC(=CCOc1ccc(OC(C)(C)C(=O)O)cc1)c1ccc(-c2ccccc2)cc1", "melting point": "148 to 150"}
{"smiles": "CCOC(=O)c1c(O)c2cscc2[nH]c1=O", "melting point": 193}
{"smiles": "O=C(O)c1cc(=O)c(Oc2ccc(C3CCCCC3)cc2)co1", "melting point": "187 to 190"}
{"smiles": "CCC(CC)c1ccc(Cl)c2nc(Nc3c(C)cc(Br)cc3OC)n(C)c12", "melting point": "218 to 220"}
{"smiles": "COc1ccc(/C=N/Nc2ccccc2)cc1OC1CCCC1", "melting point": "138 to 140"}
{"smiles": "CCC(Oc1cc(Cl)cc(Cl)c1)C(=O)NC(C)(C)C#CCCO", "note": "(configuration not stated)", "melting point": "104 to 106"}
{"smiles": "CN1C(=O)N(c2c(Cl)cccc2Cl)Cc2cnc(Nc3ccc(F)cc3)nc21", "melting point": "208 to 211"}
{"smiles": "CC(C)Oc1cccc(-c2nn(C(C)c3oc4ccccc4c(=O)c3-c3cccc(F)c3)c3ncnc(N)c23)c1", "note": "(configuration not stated)", "melting point": "153 to 157"}
{"smiles": "CCOc1ccc2c(-c3ccccc3)c([N+](=O)[O-])oc2c1", "melting point": "109 to 111"}
{"smiles": "CC(=O)Nc1ccc(C(=O)O)cc1OC(C)=O", "melting point": "219 to 221"}
{"smiles": "COc1ccc(NC(=O)c2ccc(-c3ccc(-c4noc(C)n4)cc3C)cc2)cc1S(=O)CCN(C)C", "note": "(configuration not stated)", "melting point": "204 to 206"}
{"smiles": "CCCCc1nc(=O)n2nc(-c3ccc(F)cc3)cc2[nH]1", "melting point": 238}
{"smiles": "COc1cc(Nc2nccc(-c3c[nH]c4ccccc34)n2)cc(OC)c1OC", "melting point": 197}
{"smiles": "CCCCCN(C[C@H]1CCC[C@H](CN(CCCCC)C(=O)Nc2ccc(N(C)C)cc2)C1)C(=O)Nc1ccc(N(C)C)cc1", "note": "(relative stereo)", "melting point": "124 to 127"}
{"smiles": "CN(C(=O)c1cccc(C=O)c1)c1cccc(F)c1", "melting point": "115 to 119"}
{"smiles": "CCCC(=O)Nc1ccc(OCc2nc3cc(F)ccc3s2)cc1", "melting point": "201 to 202"}
{"smiles": "CCC(C)n1ncn(-c2ccc(N3CCN(c4ccc(OC)cc4)CC3)cn2)c1=O", "note": "(configuration not stated)", "melting point": "139 to 140"}
{"smiles": "COc1cc2c(cc1Nc1ncc(Cl)c(Nc3ccccc3S(=O)(=O)N(C)C)n1)CCNC(=O)C2", "melting point": "190 to 195"}
{"smiles": "CN1C(=O)C2(COc3cc4c(cc32)CCO4)c2ccccc21", "note": "(configuration not stated)", "melting point": "187 to 190"}
{"smiles": "CCn1ncc(C(=O)c2ccc(S(C)(=O)=O)c(-n3nc(C)cc3C)c2Cl)c1O", "melting point": "217 to 218"}
{"smiles": "CC(C)(O)CONC(=O)c1ccc(F)c(F)c1Nc1ccc(I)cc1Cl", "melting point": "140 to 153"}
{"smiles": "CC(=O)CC(=O)OC(C)N=C(O)c1cc(C(=N)O)c(C(=O)O)cc1C(=O)O", "note": "(configuration not stated)", "melting point": "161 to 163"}
{"smiles": "CC(=O)SC(CC(=O)c1ccc(Oc2ccc(Cl)cc2)cc1)C(=O)O", "note": "(configuration not stated)", "melting point": "91 to 94"}
{"smiles": "Nc1cc(Cl)cc2c1NCCC2=O", "melting point": "142 to 144"}
{"smiles": "Cc1noc(C)c1C(=O)Nc1ccc(-n2nc(C(F)(F)F)cc2C(F)(F)F)cc1", "melting point": "179 to 180"}
{"smiles": "CCn1cc(C(=O)O)c(=O)c2c(C)c(F)c(N3CCNCC3)c(F)c21", "melting point": "223 to 225"}
{"smiles": "Cc1ccc(C)c2c1Cc1c(O)cccc1C2=O", "melting point": "172 to 178"}
{"smiles": "N#Cc1cnn2c1N(C(=O)CN1CCN(C(=O)OCc3ccccc3)CC1)CC=C2c1cccc(C(F)(F)F)c1", "melting point": "113 to 115"}
{"smiles": "CCOC(=O)Cc1ccnc2c(N)cccc12", "melting point": "71 to 77"}
{"smiles": "COc1ccccc1Cc1n[nH]c2c1c(=O)n(-c1cccc(C(F)(F)F)c1)c1ncccc21", "melting point": "229 to 231"}
{"smiles": "N#CNC(CSCc1ccccn1)=NCCO", "melting point": "68 to 69"}
{"smiles": "CCc1c2n(c3ccccc13)C(=O)C(Cc1ncn(C(c3ccccc3)(c3ccccc3)c3ccccc3)c1C)CC2", "note": "(configuration not stated)", "melting point": "78 to 82"}
{"smiles": "CCC1OC1CC(=O)OC(C#N)c1ccc2ccccc2c1", "note": "(configuration not stated)", "melting point": "60 to 61"}
{"smiles": "S=C(Nc1ccccc1Cl)N1CCN(c2cnccn2)CC1", "melting point": "167 to 169"}
{"smiles": "COc1cc2c(cc1Nc1ncc(Cl)c(Nc3ccccc3S(=O)(=O)N3CCCC3)n1)NC(=O)CN(CC1CC1)C2", "melting point": 142}
{"smiles": "CCC(O)c1ncn2c1CN(C)C(=O)c1ccccc1-2", "note": "(configuration not stated)", "melting point": "145 to 147"}
{"smiles": "CC(=O)OCC1OC(F)C(OC(C)=O)C(OC(C)=O)C1OC(C)=O", "note": "(configuration not stated)", "melting point": "68 to 69"}
{"smiles": "Oc1cc(Cl)c(-c2nnn[nH]2)cc1Oc1ccc(Cl)cc1Cl", "melting point": "174 to 180"}
{"smiles": "COc1ccc2c(c1)N(C1CN3CCC1CC3)c1ccccc1S2", "note": "(configuration not stated)", "melting point": 158}
{"smiles": "NCc1ccc2c(c1)ncn2-c1cccc(-c2ccccn2)c1", "melting point": "224 to 229"}
{"smiles": "CCOC(=O)C1CCN(C(=O)OCC)c2ccccc2C1O", "note": "(configuration not stated)", "melting point": 93}
{"smiles": "CC(C)CC(=O)N1CCC(c2nc3cc(-c4ccc(-n5cnnn5)cc4F)ccc3o2)CC1", "melting point": "168 to 172"}
{"smiles": "CN1CCN(c2nn(S(=O)(=O)c3ccccc3)c3cc(F)ccc23)CC1", "melting point": "159 to 161"}
{"smiles": "CC1=C(C(=O)OC(C)(C)C)C(c2cccc(F)c2F)C(C(=O)OC(C)(C)C)=C(C)N1", "melting point": "192 to 194"}
{"smiles": "O=Cc1ccc(Cc2ccccc2)cc1", "melting point": "142 to 144"}
{"smiles": "O=C(O)c1ccc2c(c1)nc(-c1ccc(Oc3cccc(-c4cccc(Cl)c4)c3)cc1)n2C1CCCCC1", "melting point": "253 to 254"}
{"smiles": "CCCCCCCCCCCCCCCCS(=O)(=O)OCc1cc(OC)c(OC)cc1[N+](=O)[O-]", "melting point": "81 to 82"}
{"smiles": "CCOC(=O)c1c2n(c3cc(Cl)c(Cl)cc3c1=O)CCS2", "melting point": "255 to 257"}
{"smiles": "C=C(Cc1ccc(-c2cccc3cncn23)cc1)C(=O)O", "melting point": "171 to 172"}
{"smiles": "[N-]=[N+]=N[C@H]1CC[C@@H](NC(=O)OCc2ccccc2)CC1", "melting point": "42 to 46"}
{"smiles": "CCOC(=O)[C@H]1CCCN2CCc3c([nH]c4ccc(Cl)cc34)[C@@H]12", "note": "(racemic)", "melting point": "88 to 90"}
{"smiles": "CCOC(=O)c1ccc(CNC(=O)CI)cc1O", "melting point": "105 to 108"}
{"smiles": "Clc1cc(Br)c2c(c1)OCCO2", "melting point": "56.5 to 58"}
{"smiles": "CCOC(=O)C(F)(F)C(O)(CC)c1cc2n(c(=O)c1CO)Cc1cc3ccccc3nc1-2", "note": "(configuration not stated)", "melting point": "208 to 209"}
{"smiles": "O=[N+]([O-])c1ccc(Oc2cccc3cccnc23)cc1", "melting point": "165 to 166"}
{"smiles": "COC(=O)c1nn(C)nc1C=O", "melting point": "107 to 108"}
{"smiles": "COC(=O)CC(N)c1cc2ccccc2nc1Cl", "note": "(configuration not stated)", "melting point": "103 to 106"}
{"smiles": "O=C(O)C(CCSc1ccccc1)Oc1ccc(C(F)(F)F)cc1", "note": "(configuration not stated)", "melting point": "108 to 110"}
{"smiles": "CS(=O)(=O)OCC1COC(=O)N1c1ccc(Cl)cc1", "note": "(configuration not stated)", "melting point": "124 to 126"}
{"smiles": "Nc1ccc(C(=O)CCc2ccc(Cl)c(Cl)c2)cc1", "melting point": "127 to 129"}
{"smiles": "CC(C)(C)OC(=O)NC[C@H]1CC[C@H](CI)CC1", "melting point": "81 to 83"}
{"smiles": "Nc1ccc(Cc2ccc(N)c(C(F)(F)F)c2)cc1C(F)(F)F", "melting point": "84 to 88"}
{"smiles": "O=C(CCCN1CC=C(c2ccccc2)CC1)c1cccnc1", "melting point": "64 to 66"}
{"smiles": "COc1cc2c(c(Cl)c1Cl)C(=O)C(CCOC(C)=O)=C2", "melting point": "134 to 136"}
{"smiles": "CCOC(=O)/C=C/c1cnn(C)c1-c1ccoc1", "melting point": "82 to 83"}
{"smiles": "C=CCOc1ccccc1-c1ncc(C(=O)OCC)c(=O)[nH]1", "melting point": "118 to 120"}
